Results taken from US20050250853A1, “Beta-tubulin inhibitors” (priority 1999, published 2005).
Entries after “also recorded” stand apart in the source; their conditions may differ. Like-named read-outs stand apart in the source and are kept apart here. Marks after values point to notes of the source that are not given here.

What was measured:
MDA-MB-231 cells [1] = assay: cells; format: cell-based, human; conditions: for IC50: MTT assay, mean ± SD, read-out: IC50 (μM) MDA-MB-231
Description: (§1) Human breast carcinoma cell line, MDA-MB-231, was obtained from the American Type Culture Collection (ATCC HTB-26; Bethesda, Md.). MDA-MB-231 cells were grown in RPMI 1640 medium supplemented with 10% bovine calf serum (Hyclone, Road Logan, Utah). Wild-type Chinese Hamster Ovary cells (CHO-10001) (7), colchicine- and vinblastine-resistant (CHO-VV 3-2) (8) and taxol-resistant (CHO-TAX 5-6) cells (9) were generously provided by Dr. Fernando Cabral (University of Texas Medical School, Houston, Tex.). These cells were cultured in RPMI 1640 containing 10% fetal bovine serum. SK—N—SH human neuroblastoma cells, (ATCC HTB-11; Bethesda, Md.) were cultured in MEM medium supplemented with 2 mM L-glutamine, 1.5 g/liter sodium bicarbonate, 0.1 mM non-essential amino acids, 1 mM sodium pyruvate and 10% fetal bovine serum. Cells were cultured in a humidified atmosphere at 37° C. in 5% CO2.
(§2) Cytotoxicity was assessed using the MTT assay (3-(4,5-dimethylthiazol-2-yl)-2,5-diphenyltetrazolium bromide) as described by Carmichael et al. (12).

[2] = Kinetics of alkylation of 4-(4-nitrobenzyl)pyridine (colorimetric assay); format: physicochemical; conditions: 80° C., pH 4.3, absorbance at 570 nm, linear regression, mean ± SD
Description: The rate constant of alkylation (K′) of CEU derivatives and chlorambucil was evaluated by a […] assay as described by Bardos et al (13). Briefly, 1 ml of a 10% (v/v) solution of 4-(4-nitrobenzyl)pyridine in ethanol and 1 ml of 50 mM sodium acetate (pH 4.3) were added to an ethanol solution (95%) containing 400 nmol per ml of either chlorambucil or CEU and heated to 80° C. in a shaking water bath for 60, 90, 120 or 150 min. The reaction was stopped by cooling the mixtures on ice for 5 min. Then, 1.5 ml of 0.1 M KOH: ethanol (1:2, v/v) were added to the reaction mixture. Samples were vortexed for 12 sec and set aside for 2.5 min prior to reading the absorbance at 570 nm. The values were compared with those obtained using a blank sample containing all reagents except the alkylating agent.

[3] = system: CHO 10001 cells (wild-type); assay: MTT cytotoxicity on wild-type CHO cells; format: cell-based, Chinese hamster; conditions: Cricetulus griseus, CHO10001, 120 h, read-out: IC50 CHO 10001
Description: as §1, with “Wild-type Chinese Hamster Ovary cells (CHO-10001) (7), colchicine- and vinblastine-resistant (CHO-VV 3-2) (8) and taxol-resistant (CHO-TAX 5-6) cells (9) were generously provided by Dr. Fernando Cabral (University of Texas Medical School, Houston, Tex.).” left out
as §2
(§3) The cytotoxicity of 4-tBCEU, 4-iPCEU and 4-sBCEU in two CHO cell lines having differential sensitivity to antmicrotubule agents was evaluated. These cell lines are derived from parental CHO-10001 cells and express mutated tubulins.

CHO TAX 5-6 cells = assay: MTT cytotoxicity on taxol-resistant CHO cells expressing mutated tubulin; format: cell-based, Chinese hamster; conditions: Cricetulus griseus, CHO-TAX 5-6, 120 h, read-out: IC50 CHO TAX 5-6
Description: as §1, with “Wild-type Chinese Hamster Ovary cells (CHO-10001) (7), colchicine- and vinblastine-resistant (CHO-VV 3-2) (8) and taxol-resistant (CHO-TAX 5-6) cells (9) were generously provided by Dr. Fernando Cabral (University of Texas Medical School, Houston, Tex.).” left out
as §2, §3

CHO VV 3-2 cells = assay: MTT cytotoxicity on vinblastine- and colchicine-resistant CHO cells expressing mutated tubulin; format: cell-based, Chinese hamster; conditions: Cricetulus griseus, CHO-VV 3-2, 120 h, read-out: IC50 CHO VV 3-2
Description: as §1, with “Wild-type Chinese Hamster Ovary cells (CHO-10001) (7), colchicine- and vinblastine-resistant (CHO-VV 3-2) (8) and taxol-resistant (CHO-TAX 5-6) cells (9) were generously provided by Dr. Fernando Cabral (University of Texas Medical School, Houston, Tex.).” left out
as §2, §3

MDA-MB-231 cells [4] = assay: Cell cycle analysis by propidium iodide flow cytometry; format: cell-based, human; conditions: CEU derivatives at 30 μM, 24 h; flow cytometry
Description: FIG. 1. Effect of CEU derivatives on cell cycle. Exponentially growing MDA-MB-231 cells were incubated in the absence or presence of 30 μM of either 4-tBCEU, 4-iPCEU or 4-sBCEU for 24 and 48 h, respectively, at 37° C. The cell cycle was evaluated using propidium iodide staining and flow cytometric analysis. Data are representative of three independent experiments.
Following incubation of MDA-MB-231 cells with 4-tBCEU, 4-iPCEU or 4-sBCEU, the cells were harvested, resuspended in 1 ml PBS and fixed by the addition of 2.4 ml of ice cold anhydrous ethanol. Then, 5×10^5 cells from each sample were centrifuged for 3 min at 1000×g. Cell pellets were resuspended in PBS containing 50 μg/ml of PI and 40 U/ml of ribonuclease A (Boehringer Mannheim, Laval, Calif.). Mixtures were incubated at room temperature for 30 min and cell cycle distribution was analyzed using an Epics Elite ESP flow cytometer (Coulter Corporation, Miami, Fla., USA).
The effect of CEU, namely 4-tBCEU, 4-PCEU and 4-sBCEU, on the cell cycle was analyzed. To this end, exponentially growing MDA-MB-231 cells were treated with 30 μM 4-tBCEU, 4-iPCEU or 4-sBCEU for 24 or 48 h followed by an evaluation of cell cycle distribution by flow cytometry using propidium iodide, a fluorescent DNA dye. […] Induction of mitosis blockage in prophase by CEU derivatives was confirmed by mitotic index analysis as described by Drouin (22).

β-tubulin = assay: Separation of soluble and polymerized tubulins, Western blot of β-tubulin; format: cell-based, human; conditions: MDA-MB-231 cells, 30 μM, 24 h and 48 h
Description: FIG. 2. Effects of CEU derivatives on microtubule depolymerization. Exponentially growing MDA-MB-231 cells were incubated in the absence or the presence of 30 μM of CEU derivatives including (A) 4-tBCEU, 4-iPCEU or 4-sBCEU for 24 and 48 h respectively; (B) 2-ECEU, 3-ECEU or 4-ECEU for 24 and 48 h; and (C) 4-tBEU, 4-iPEU, 4-sBEU, 4-tBCPU, CEU or 4-methoxyCEU for 48 h. Free tubulin and microtubule fractions were isolated and analyzed by Western blot. Data are representative of three different experiments.
Separation of soluble and polymerized tubulins from MDA-MB231 cells was carried out as described by Minotti et al. (14) with minor modifications. Briefly, after drug exposure, about 5×10^6 cells in 100-mm petri dishes were washed with PBS at 37° C. and harvested in 3 ml of PBS containing 0.4 μg/ml of taxol using a rubber policeman.
Cells were centrifuged and lysed using 250 μl of microtubule-stabilizing buffer (20 mM Tris-HCl, pH 6.8, 140 mM NaCl, 1 mM MgCl2, 2 mM EDTA, 0.5% Nonidet P-40 and 0.4 μg/ml taxol), and then transferred to 1.5 ml microcentrifuge tubes. Samples were centrifuged at 12,000×g for 10 min at 4° C. and the supernatants containing soluble tubulin were placed in separate microcentrifuge tubes containing 250 μl of 2× Laemmli sample buffer (15). Pellets containing the polymerized tubulin were resuspended in 250 μl of water, followed by two freeze/thawing cycles, and the addition of 250 μl of 2× Laemmli sample buffer. Samples were analyzed by SDS-PAGE and immunoassay was performed as described below.
Samples (1×10^5 cells) were analyzed by 10% SDS-PAGE using the Laemmli system (15). Membranes were then incubated with PBSMT (PBS, pH 7.4, 5% fat-free dry milk and 0.1% Tween-20) for 1 h at room temperature, and then with 1:500 monoclonal anti-β-tubulin (clone TUB 2.1, Sigma) or 1:400 anti (clone no. SDL.3D10, Sigma) for 1 h. […] Membranes were washed with PBSMT and incubated with 1:2500 peroxidase-conjugated anti-mouse immunoglobulin (Amersham Canada, Oakville, Canada) in PBSMT for 30 min. Detection of the immunoblot was carried out with the ECL Western blotting detection reagent kit (Amersham Canada, Oakville, Canada).

α-tubulin = assay: Western blot for α-tubulin modification; format: cell-based, human; conditions: data not shown

For `CC(C)(C)c1ccc(NC(=O)NCCCl)cc1` [Example 4-tBCEU, 4-tert-butyl[3-(2-chloroethyl)ureido]benzene], the “cytotoxicity in words (active / inactive CEU)” value (MDA-MB-231 cells [1]) was “active”, the IC50 (MDA-MB-231 cells [1]; Homo sapiens, MDA-MB-231, concentration inhibiting 50% of cell growth) was 4 µM and the IC50 (MDA-MB-231 cells [1]; concentration inhibiting 50% of cell growth) was 4.6 ± 0.3 µM. The “K′ (constant of alkylation of 4-(4-nitrobenzyl)pyridine)” value [2] was 3.1 ± 0.3^a, the IC50 [3] was 11.6 ± 0.7 µM and the IC50 (CHO TAX 5-6 cells) was 4.6 ± 0.3 µM. The IC50 (CHO VV 3-2 cells) was 21.3 ± 1.1 µM, the “accumulation of cells in G2+M” value (MDA-MB-231 cells [4]) was “significant accumulation of cells in the G2+M” and the microtubule depolymerization (β-tubulin) was “complete microtubule depolymerization”. The “formation of modified β-tubulin (second immunoreactive band of lower Mr)” value (β-tubulin; free tubulin fraction) was “second immunoreactive band; also recorded: induced in a dose-dependent manner” and the α-tubulin modification (α-tubulin) was “no electrophoretic evidence for α-tubulin modification”.
